In ChEMBL document CHEMBL1155511, “Discovery of a new potent bisamide FMS kinase inhibitor” (Bioorg Med Chem Lett, 2010):

How the values were obtained:
[1] = molecular target: Rho-associated protein kinase 1 (Homo sapiens) (UniProt Q13464); assay: Inhibition of ROCK1 at 1 uM
[2] = molecular target: [Pyruvate dehydrogenase (acetyl-transferring)] kinase isozyme 1, mitochondrial (Homo sapiens) (UniProt Q15118); assay: Inhibition of PDK1 at 1 uM
[3] = molecular target: Insulin receptor (Homo sapiens) (UniProt P06213); assay: Inhibition of IR at 1 uM
[4] = Inhibition of PKBalpha; conditions: concentration not given here
[5] = molecular target: Serine/threonine-protein kinase Chk1 (Homo sapiens) (UniProt O14757); assay: Inhibition of CHK1 at 1 uM
[6] = molecular target: Proto-oncogene tyrosine-protein kinase Src (Homo sapiens) (UniProt P12931); assay: Inhibition of c-SRC at 1 uM
[7] = molecular target: Inhibitor of nuclear factor kappa-B kinase subunit beta (Homo sapiens) (UniProt O14920); assay: Inhibition of IKK-beta at 1 uM
[8] = molecular target: T1, Vascular endothelial growth factor receptor 2 (Homo sapiens, UniProt P35968); assay: Inhibition of KDR
[9] = molecular target: Tyrosine-protein kinase Fyn (Homo sapiens) (UniProt P06241); assay: Inhibition of FYN at 1 uM
[10] = molecular target: Ribosomal protein S6 kinase alpha-1 (Homo sapiens) (UniProt Q15418); assay: Inhibition of RSK1 at 1 uM
[11] = molecular target: Ephrin type-A receptor 1 (Homo sapiens) (UniProt P21709); assay: Inhibition of EPHA1 at 1 uM
[12] = molecular target: Serine/threonine-protein kinase PAK 2 (Homo sapiens) (UniProt Q13177); assay: Inhibition of PAK2 at 1 uM
[13] = molecular target: Protein kinase C alpha type (Homo sapiens) (UniProt P17252); assay: Inhibition of PKCalpha at 1 uM
[14] = molecular target: Proto-oncogene tyrosine-protein kinase ROS (Homo sapiens) (UniProt P08922); assay: Inhibition of ROS1 at 1 uM
[15] = molecular target: Mitogen-activated protein kinase 8 (Homo sapiens) (UniProt P45983); assay: Inhibition of JNK1alpha1 at 1 uM
[16] = molecular target: Serine/threonine-protein kinase pim-1 (Homo sapiens) (UniProt P11309); assay: Inhibition of PIM1 at 1 uM
[17] = molecular target: Glycogen synthase kinase-3 beta (Homo sapiens) (UniProt P49841); assay: Inhibition of GSK3-beta at 1 uM
[18] = molecular target: Serine/threonine-protein kinase MARK1 (Homo sapiens) (UniProt Q9P0L2); assay: Inhibition of MARK1 at 1 uM
[19] = molecular target: Tyrosine-protein kinase ABL1 (Homo sapiens) (UniProt P00519); assay: Inhibition of ABL1 at 1 uM
[20] = molecular target: Dual specificity mitogen-activated protein kinase kinase 1 (Homo sapiens) (UniProt Q02750); assay: Inhibition of MEK1 at 1 uM
[21] = molecular target: Tyrosine-protein kinase Lck (Homo sapiens) (UniProt P06239); assay: Inhibition of LCK at 1 uM
[22] = molecular target: Proto-oncogene tyrosine-protein kinase receptor Ret (Homo sapiens) (UniProt P07949); assay: Inhibition of RET at 1 uM
[23] = molecular target: T1, Vascular endothelial growth factor receptor 2; assay: Inhibition of KDR at 1 uM
[24] = Inhibition of PKA at 1 uM
[25] = molecular target: T2, Macrophage colony-stimulating factor 1 receptor (Homo sapiens, UniProt P07333); assay: Inhibition of FMS
[26] = molecular target: Calcium/calmodulin-dependent protein kinase type 1 (Homo sapiens) (UniProt Q14012); assay: Inhibition of CamK1 at 1 uM
[27] = molecular target: Insulin-like growth factor 1 receptor (Homo sapiens) (UniProt P08069); assay: Inhibition of IGF1R at 1 uM
[28] = molecular target: Fibroblast growth factor receptor 1 (Homo sapiens) (UniProt P11362); assay: Inhibition of FGFR1 at 1 uM
[29] = molecular target: Tyrosine-protein kinase Tec (Homo sapiens) (UniProt P42680); assay: Inhibition of TEC at 1 uM
[30] = molecular target: Mitogen-activated protein kinase 14 (Homo sapiens) (UniProt Q16539); assay: Inhibition of SAPK2A at 1 uM
[31] = molecular target: Receptor-type tyrosine-protein kinase FLT3 (Homo sapiens) (UniProt P36888); assay: Inhibition of FLT3 at 1 uM
[32] = molecular target: Tyrosine-protein kinase SYK (Homo sapiens) (UniProt P43405); assay: Inhibition of SYK at 1 uM
[33] = molecular target: Epidermal growth factor receptor (Homo sapiens) (UniProt P00533); assay: Inhibition of EGFR at 1 uM
[34] = molecular target: Cyclin-dependent kinase 5/CDK5 activator 1 (Homo sapiens) (UniProt Q00535+Q15078); assay: Inhibition of CDK5/p25 at 1 uM; format: protein-complex assay
[35] = molecular target: Mast/stem cell growth factor receptor Kit (Homo sapiens) (UniProt P10721); assay: Inhibition of cKIT1 at 1 uM
[36] = molecular target: Tyrosine-protein kinase BTK (Homo sapiens) (UniProt Q06187); assay: Inhibition of BTK at 1 uM
[37] = molecular target: Mitogen-activated protein kinase kinase kinase 9 (Homo sapiens) (UniProt P80192); assay: Inhibition of MLK1 at 1 uM
[38] = molecular target: Tyrosine-protein kinase JAK3 (Homo sapiens) (UniProt P52333); assay: Inhibition of JAK3 at 1 uM
[39] = molecular target: ALK tyrosine kinase receptor (Homo sapiens) (UniProt Q9UM73); assay: Inhibition of ALK at 1 uM
[40] = molecular target: Homeodomain-interacting protein kinase 2 (Homo sapiens) (UniProt Q9H2X6); assay: Inhibition of HIPK2 at 1 uM
[41] = molecular target: Serine/threonine-protein kinase mTOR (Homo sapiens) (UniProt P42345); assay: Inhibition of mTOR at 1 uM
[42] = molecular target: Ribosomal protein S6 kinase beta-1 (Homo sapiens) (UniProt P23443); assay: Inhibition of p70S6K at 1 uM
[43] = molecular target: Aurora kinase A (Homo sapiens) (UniProt O14965); assay: Inhibition of Aurora A at 1 uM
[44] = molecular target: Protein-tyrosine kinase 2-beta (Homo sapiens) (UniProt Q14289); assay: Inhibition of PYK2 at 1 uM
[45] = molecular target: T2, Macrophage colony-stimulating factor 1 receptor; assay: Inhibition of FMS at 1 uM
[46] = molecular target: Serine/threonine-protein kinase PLK1 (Homo sapiens) (UniProt P53350); assay: Inhibition of PLK1 at 1 uM

T2 sequence (P07333 whole entry, looked up): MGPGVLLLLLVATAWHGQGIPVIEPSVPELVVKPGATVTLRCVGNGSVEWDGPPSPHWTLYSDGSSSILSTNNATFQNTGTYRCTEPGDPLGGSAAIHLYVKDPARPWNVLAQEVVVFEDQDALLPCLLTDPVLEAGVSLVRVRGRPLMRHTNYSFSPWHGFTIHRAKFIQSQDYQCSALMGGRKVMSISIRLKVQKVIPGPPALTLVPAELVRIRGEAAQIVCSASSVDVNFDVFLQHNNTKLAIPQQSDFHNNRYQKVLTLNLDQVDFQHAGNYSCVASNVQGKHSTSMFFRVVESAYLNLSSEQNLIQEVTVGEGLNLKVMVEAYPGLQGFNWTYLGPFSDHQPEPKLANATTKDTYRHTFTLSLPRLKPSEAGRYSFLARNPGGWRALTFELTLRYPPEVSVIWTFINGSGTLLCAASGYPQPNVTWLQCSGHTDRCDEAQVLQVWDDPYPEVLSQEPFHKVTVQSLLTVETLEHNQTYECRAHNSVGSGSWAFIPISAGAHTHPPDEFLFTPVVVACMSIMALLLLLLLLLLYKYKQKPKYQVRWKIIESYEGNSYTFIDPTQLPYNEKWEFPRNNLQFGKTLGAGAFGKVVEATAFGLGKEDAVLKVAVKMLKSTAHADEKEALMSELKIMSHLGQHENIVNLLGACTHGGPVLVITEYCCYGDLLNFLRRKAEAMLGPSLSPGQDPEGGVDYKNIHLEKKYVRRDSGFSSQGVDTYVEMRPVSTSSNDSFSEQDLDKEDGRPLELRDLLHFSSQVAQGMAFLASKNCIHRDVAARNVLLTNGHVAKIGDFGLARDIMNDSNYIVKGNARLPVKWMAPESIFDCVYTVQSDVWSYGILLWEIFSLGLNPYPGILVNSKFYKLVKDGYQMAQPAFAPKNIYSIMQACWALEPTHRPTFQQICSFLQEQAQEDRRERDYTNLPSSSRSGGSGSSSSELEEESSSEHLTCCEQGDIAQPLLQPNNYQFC
T1 sequence (P35968 whole entry): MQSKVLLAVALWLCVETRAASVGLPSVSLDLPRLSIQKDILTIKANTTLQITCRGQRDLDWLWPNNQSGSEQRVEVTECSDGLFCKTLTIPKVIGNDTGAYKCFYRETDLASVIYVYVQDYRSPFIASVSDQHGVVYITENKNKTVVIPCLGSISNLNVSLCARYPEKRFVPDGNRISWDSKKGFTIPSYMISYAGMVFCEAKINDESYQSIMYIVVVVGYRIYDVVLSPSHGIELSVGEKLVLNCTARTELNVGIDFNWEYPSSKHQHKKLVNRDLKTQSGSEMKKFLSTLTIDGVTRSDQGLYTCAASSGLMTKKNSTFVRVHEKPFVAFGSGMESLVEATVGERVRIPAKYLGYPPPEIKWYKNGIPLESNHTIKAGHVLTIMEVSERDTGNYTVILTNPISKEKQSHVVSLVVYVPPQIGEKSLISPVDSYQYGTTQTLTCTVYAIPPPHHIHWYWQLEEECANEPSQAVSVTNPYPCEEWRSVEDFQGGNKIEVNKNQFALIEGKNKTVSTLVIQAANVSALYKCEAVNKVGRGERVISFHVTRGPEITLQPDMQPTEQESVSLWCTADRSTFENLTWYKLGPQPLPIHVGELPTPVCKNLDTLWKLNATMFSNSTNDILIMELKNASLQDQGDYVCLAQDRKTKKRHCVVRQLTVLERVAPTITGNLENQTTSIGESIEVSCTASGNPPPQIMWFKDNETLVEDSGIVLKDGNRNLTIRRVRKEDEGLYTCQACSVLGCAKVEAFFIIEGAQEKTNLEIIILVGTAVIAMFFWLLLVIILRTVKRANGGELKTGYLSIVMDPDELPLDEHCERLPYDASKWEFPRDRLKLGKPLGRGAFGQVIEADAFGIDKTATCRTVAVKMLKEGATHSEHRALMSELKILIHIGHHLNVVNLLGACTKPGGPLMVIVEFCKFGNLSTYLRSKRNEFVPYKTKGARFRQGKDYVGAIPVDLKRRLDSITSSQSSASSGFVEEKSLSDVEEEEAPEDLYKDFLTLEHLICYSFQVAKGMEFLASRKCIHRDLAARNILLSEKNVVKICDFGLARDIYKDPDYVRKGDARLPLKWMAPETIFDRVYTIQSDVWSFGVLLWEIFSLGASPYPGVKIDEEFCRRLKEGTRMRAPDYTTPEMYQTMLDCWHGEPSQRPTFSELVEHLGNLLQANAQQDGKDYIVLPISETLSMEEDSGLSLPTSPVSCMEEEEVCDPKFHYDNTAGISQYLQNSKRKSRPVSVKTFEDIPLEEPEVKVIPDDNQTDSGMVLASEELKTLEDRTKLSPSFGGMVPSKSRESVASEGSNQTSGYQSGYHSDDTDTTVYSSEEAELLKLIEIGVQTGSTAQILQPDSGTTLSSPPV
Sequence of Rho-associated protein kinase 1 (Homo sapiens) (Q13464 2-1354 limits assumed): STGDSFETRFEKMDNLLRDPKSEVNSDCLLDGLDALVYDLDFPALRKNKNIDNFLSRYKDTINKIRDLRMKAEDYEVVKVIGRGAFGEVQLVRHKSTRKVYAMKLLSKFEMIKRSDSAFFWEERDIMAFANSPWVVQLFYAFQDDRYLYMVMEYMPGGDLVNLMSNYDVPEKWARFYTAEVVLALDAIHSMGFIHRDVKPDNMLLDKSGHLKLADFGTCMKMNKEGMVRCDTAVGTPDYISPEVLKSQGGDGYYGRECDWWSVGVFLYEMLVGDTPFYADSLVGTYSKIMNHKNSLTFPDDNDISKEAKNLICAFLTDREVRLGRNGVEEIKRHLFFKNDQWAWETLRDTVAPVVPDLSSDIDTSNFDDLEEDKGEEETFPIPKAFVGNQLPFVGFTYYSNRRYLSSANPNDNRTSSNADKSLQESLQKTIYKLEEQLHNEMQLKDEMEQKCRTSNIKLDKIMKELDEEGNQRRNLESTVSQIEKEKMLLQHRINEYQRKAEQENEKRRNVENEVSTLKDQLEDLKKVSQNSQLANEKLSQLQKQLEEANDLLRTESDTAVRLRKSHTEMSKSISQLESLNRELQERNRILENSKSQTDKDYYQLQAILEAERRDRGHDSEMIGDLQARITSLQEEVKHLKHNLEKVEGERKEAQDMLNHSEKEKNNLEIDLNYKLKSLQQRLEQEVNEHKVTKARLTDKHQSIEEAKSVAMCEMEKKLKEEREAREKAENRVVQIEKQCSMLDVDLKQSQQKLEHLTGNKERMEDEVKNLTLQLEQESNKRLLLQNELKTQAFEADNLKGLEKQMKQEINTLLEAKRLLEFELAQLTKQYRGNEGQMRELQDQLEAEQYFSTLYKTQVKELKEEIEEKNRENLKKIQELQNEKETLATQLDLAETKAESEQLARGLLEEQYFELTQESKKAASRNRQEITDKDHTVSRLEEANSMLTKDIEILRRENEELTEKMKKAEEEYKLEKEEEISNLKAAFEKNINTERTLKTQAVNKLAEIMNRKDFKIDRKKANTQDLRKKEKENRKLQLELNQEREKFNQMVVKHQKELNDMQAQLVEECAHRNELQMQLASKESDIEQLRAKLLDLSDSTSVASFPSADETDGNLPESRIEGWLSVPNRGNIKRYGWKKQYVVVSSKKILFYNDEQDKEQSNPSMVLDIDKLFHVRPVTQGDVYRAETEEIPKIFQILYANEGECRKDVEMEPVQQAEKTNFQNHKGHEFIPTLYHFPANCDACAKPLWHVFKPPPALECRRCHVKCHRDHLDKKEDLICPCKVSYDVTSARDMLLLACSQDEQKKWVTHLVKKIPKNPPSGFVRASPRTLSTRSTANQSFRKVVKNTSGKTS
Sequence of Mitogen-activated protein kinase kinase kinase 9 (Homo sapiens) (P80192 whole entry, looked up): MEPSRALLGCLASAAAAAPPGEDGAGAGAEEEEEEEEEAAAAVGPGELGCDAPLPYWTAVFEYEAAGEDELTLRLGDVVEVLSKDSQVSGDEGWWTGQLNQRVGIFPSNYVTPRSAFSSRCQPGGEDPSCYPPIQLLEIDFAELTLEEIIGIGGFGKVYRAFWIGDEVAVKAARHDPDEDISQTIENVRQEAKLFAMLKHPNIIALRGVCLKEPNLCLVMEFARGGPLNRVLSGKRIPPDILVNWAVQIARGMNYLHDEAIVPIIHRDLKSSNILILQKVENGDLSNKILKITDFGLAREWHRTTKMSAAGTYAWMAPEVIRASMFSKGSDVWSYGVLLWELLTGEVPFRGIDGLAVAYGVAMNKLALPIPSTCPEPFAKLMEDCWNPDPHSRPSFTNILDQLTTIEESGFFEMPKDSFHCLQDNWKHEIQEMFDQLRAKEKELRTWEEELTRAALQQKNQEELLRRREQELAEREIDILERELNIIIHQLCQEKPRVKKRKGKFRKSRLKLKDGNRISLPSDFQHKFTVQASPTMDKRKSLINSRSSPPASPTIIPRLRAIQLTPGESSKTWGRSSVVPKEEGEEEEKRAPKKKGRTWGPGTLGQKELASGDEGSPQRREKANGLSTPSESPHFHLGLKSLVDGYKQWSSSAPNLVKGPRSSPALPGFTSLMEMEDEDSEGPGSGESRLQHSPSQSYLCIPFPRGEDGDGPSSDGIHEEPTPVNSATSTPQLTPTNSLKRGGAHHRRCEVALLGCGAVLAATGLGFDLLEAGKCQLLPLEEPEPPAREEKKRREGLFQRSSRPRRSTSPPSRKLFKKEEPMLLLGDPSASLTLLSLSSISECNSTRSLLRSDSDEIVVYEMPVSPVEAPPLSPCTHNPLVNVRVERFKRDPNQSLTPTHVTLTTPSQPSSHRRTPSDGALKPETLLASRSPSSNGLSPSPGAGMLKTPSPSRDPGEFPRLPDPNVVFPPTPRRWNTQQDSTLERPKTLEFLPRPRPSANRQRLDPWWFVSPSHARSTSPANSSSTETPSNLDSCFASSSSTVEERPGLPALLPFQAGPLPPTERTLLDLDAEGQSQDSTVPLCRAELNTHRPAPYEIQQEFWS
Sequence of Serine/threonine-protein kinase pim-1 (Homo sapiens) (P11309 whole entry, looked up): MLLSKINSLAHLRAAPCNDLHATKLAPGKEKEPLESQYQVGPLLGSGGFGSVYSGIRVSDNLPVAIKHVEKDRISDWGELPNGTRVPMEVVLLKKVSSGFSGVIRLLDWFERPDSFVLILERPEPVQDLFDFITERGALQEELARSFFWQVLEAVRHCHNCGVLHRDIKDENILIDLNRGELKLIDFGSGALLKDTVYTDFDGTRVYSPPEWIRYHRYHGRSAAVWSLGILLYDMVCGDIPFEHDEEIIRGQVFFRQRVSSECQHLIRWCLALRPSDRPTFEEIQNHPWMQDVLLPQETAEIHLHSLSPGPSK

- inhibition [1]: 3%
- inhibition [2]: -1%
- inhibition [3]: 2%
- inhibition [4]: 18%
- inhibition [5]: -8%
- inhibition [6]: 10%
- inhibition [7]: 23%
- IC50 [8]: 1060 nM
- inhibition [9]: 44%
- inhibition [10]: 8%
- inhibition [11]: 9%
- inhibition [12]: 2%
- inhibition [13]: -5%
- inhibition [14]: 19%
- inhibition [15]: -1%
- inhibition [16]: 10%
- inhibition [17]: 4%
- inhibition [18]: -9%
- inhibition [19]: 41%
- inhibition [20]: 12%
- inhibition [21]: 33%
- inhibition [22]: 57%
- inhibition [23]: 71%
- inhibition [24]: 16%
- IC50 [25]: 96 nM
- inhibition [26]: -1%
- inhibition [27]: 10%
- inhibition [28]: 6%
- inhibition [29]: 14%
- inhibition [30]: 25%
- inhibition [31]: 16%
- inhibition [32]: 6%
- inhibition [33]: 1%
- inhibition [34]: 8%
- inhibition [35]: -2%
- inhibition [36]: 7%
- inhibition [37]: -1%
- inhibition [38]: 17%
- inhibition [39]: 11%
- inhibition [40]: 9%
- inhibition [41]: -10%
- inhibition [42]: 7%
- inhibition [43]: 21%
- inhibition [44]: 23%
- inhibition [45]: 90%
- inhibition [46]: 4%
SMILES: O=C(Nc1cccc(-n2ccc3c(NC(=O)c4ccccc4)nccc32)c1)c1ccc(N2CCOCC2)c(C(F)(F)F)c1
